Laboratory results as given in BigSolDB 2.1.

Brc1sc(Br)c(Br)c1Br
solubility (mole fraction)
Conditions	in THF	in ethanol
278.15 K	0.0397	0.00126
282.15 K	0.043	0.00134
286.15 K	0.0463	0.00151
290.15 K	0.05	0.00181
294.15 K	0.0539	0.00206
298.15 K	0.0581	0.00241
302.15 K	0.0627	0.00268
306.15 K	0.0671	0.00305
310.15 K	0.0719	0.00353
314.15 K	0.0766	0.00389
318.15 K	0.082	0.00442
322.15 K	0.0869	0.00501
